# Assay results from EP2949653A1, “ISOXAZOLE DERIVATIVES AS LEUKOTRIENE BIOSYNTHESIS INHIBITORS” (Banoglu, Erden, priority 2014, dated 2015).
# Like-named read-outs stand apart in the source and are kept apart here.
# Columns and labels:
# [1] = target: T1, purified 5-LO (Homo sapiens, UniProt P09917); experiment: Purified / human recombinant 5-LO activity (cell-free); format: biochemical; conditions: remaining 5-LO activity (percentage of uninhibited control) at 30 µM test compound
# T1 sequence (P09917 1-674): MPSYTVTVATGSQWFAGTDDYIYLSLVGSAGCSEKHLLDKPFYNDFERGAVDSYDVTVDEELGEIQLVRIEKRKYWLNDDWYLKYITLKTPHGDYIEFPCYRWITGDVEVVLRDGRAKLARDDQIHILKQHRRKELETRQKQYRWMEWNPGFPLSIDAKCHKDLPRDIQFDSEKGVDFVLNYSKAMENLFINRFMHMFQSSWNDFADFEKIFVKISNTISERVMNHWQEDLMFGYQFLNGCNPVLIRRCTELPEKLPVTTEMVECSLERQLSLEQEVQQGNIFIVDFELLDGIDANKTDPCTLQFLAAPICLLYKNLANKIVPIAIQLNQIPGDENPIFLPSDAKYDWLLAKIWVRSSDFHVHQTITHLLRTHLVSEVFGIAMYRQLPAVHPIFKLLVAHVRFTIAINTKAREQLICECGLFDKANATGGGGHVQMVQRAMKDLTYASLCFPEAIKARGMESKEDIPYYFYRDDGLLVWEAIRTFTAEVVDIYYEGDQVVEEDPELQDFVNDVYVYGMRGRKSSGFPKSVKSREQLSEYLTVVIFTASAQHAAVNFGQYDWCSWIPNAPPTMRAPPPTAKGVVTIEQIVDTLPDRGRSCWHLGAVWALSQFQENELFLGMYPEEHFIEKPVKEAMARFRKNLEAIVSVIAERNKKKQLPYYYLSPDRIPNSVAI
# [2] = target: T1, purified 5-LO; experiment: as above; format: biochemical; conditions: purified 5-LO under cell free conditions; mean ± SE, n = 3-4; read-out: Inhibition of purified 5-LO activity IC50 (µM) cell-free
# Procedure: (§1) Cell based and cell-free assays carried out in biological studies, immunofluorescence microscopy analysis and zymosan-induced peritonitis in mice are performed as described hereinabove (Pegola, C. and et al., British J. Pharmacology, 2014, D01:10.1111/bph.12625). In the cell based assays (intact neutrophils or monocytes), 5-LO mediated product formation is started, after pre-incubation with test compounds (or control DMSO) for 15 min. at 37 °C, with addition of Ca-ionophore A23187 (2.5 µM) to the fresh 5 x 10^6 neutrophils or monocytes suspended in 1 ml of PGC buffer (phosphate buffered saline (PBS) solution containing 1 mg ml^-1 glucose and 1mM CaCl2, pH 7.4). After the incubation for 10 min. at 37 °C, the reaction is ended with addition of 1 ml of methanol, and 30 µL 1 N HCl, 200 ng prostaglandin B1 and 500 µL PBS are added to the mixture. In cell-free assays (isolated 5-LO and cell homogenates), human recombinant 5-LO protein or 40,000g supernatant is added to 1 ml of 5-LO reaction mixture (PBS, pH 7.4, 1 mM EDTA, 1 mM ATP), and then incubated with test compounds (or control DMSO) for 10 min. at 4°C, heated to 37 °C and 2 mM CaCl2 as well as AA at certain concentrations are added. The reaction is ended as described for the cell-based assays. Resulting 5-LO mediated products are extracted and analysed by the known method of high pressure liquid chromatography (HPLC) (Pergola, C. Proc Natl. Acad. Sci. U.S.A. 2008, 105, 19881). 5-LO mediated product formation (LTB4 and all trans isomers, and 5 (S)-hydro(pero)xy-6-trans-8, 11, 14-cis-eicosatetraenoic acid, 5-H(p)ETE) is expressed as ng per 10^6 cell. Cysteinyl-LTs have not been analyzed because that the amount of C4, D4 and E4 and LTB4 oxidation products are below the detection limit.
# (§2) Compounds were tested in intact human neutrophils stimulated with 2.5 µM A23187 under cell based conditions and on purified 5-LO under cell free conditions. ^aData are given as remaining activity as a percentage of control (100%) at 10 µM or 1 µM inhibitor concentrations (means ± SE, n = 3-6).
# 9hj was added 15 min before addition of 2 mM Ca^2+ plus 3 µM, 10 µM and 30 µM AA. 100% controls correspond to 200.35 ng mL^-1 for 3 µM AA, 514.36 ng mL^-1 for 10 µM AA and 537.73 ng mL^-1 for 30 µM AA.
# [3] = test system: 5-LO mediated product formation; experiment: 5-LO mediated product formation in intact neutrophils stimulated with A23187 (cell-based); design: species or system human; conditions: for IC50: Neutrophil, intact human neutrophils stimulated with 2.5 µM A23187, mean ± SE, n = 3-4, read-out: Inhibition of purified 5-LO activity IC50 (µM) cell based; for activity at 1 µM / activity at 10 µM: PMNL, human neutrophils, 2.5 µM A23187, means ± SE, n = 3-6; for activity at 1 µM: remaining activity at 1 µM inhibitor, read-out: 5-LO mediated product formation in intact neutrophils (PMNL) (% of control) at 1 µM; for activity at 10 µM: remaining activity at 10 µM inhibitor, read-out: 5-LO mediated product formation in intact neutrophils (PMNL) (% of control) at 10 µM
# Procedure: as §1, §2
# Compound 9hj inhibited 5-LO mediated product formation with IC50 of 60 nM in human neutrophils. Neutrophils are stimulated with Ca-ionophore A23187 (2.5 µM), without the addition of exogenous arachidonic acid (AA), after pre-incubation with 9hj or vehicle (0.1 % DMSO). 100% controls correspond to 275.7 ng mL^-1 of 5-LO mediated products (Figure 1).
# 100% controls correspond to 328.97 ng mL^-1 of 5-LO mediated products.
# [4] = target: T1, purified 5-LO; conditions: literature value, Banoglu et al. Bioorg. Med. Chem. 2012, 20, 3728; read-out: IC50cell-free; cited from earlier work
# [5] = test system: 5-LO mediated product formation; conditions: literature value, Banoglu et al. Bioorg. Med. Chem. 2012, 20, 3728; read-out: IC50PMNL (cell-based assay); cited from earlier work
remaining activity at 30 µM [1],IC50 [2],IC50 [3],SMILES,activity at 1 µM [3],activity at 10 µM [3],IC50 [4],IC50 [5]
73%,> 30 µM,1.81 ± 0.11 µM,"Cc1cc(OCc2ccccn2)ccc1-c1onc(C(=O)O)c1-c1ccc(Cl)cc1 [Compound 9gk, 4-(4-Chlorophenyl)-5-(2-methyl-4-(pyridin-2-ylmethoxy)phenyl)isoxazole-3-carboxylic acid]",73.2 ± 7.42%,0.45 ± 0.45%,,
75%,> 30 µM,9.07 ± 1.98 µM,"Cc1cc(OCc2ccc3ccccc3n2)ccc1-c1onc(C(=O)O)c1-c1ccc(Cl)cc1 [Compound 9hk, 4-(4-Chlorophenyl)-5-(2-methyl-4-(quinolin-2-ylmethoxy)phenyl)isoxazole-3-carboxylic acid]",69.1 ± 5.53%,44.2 ± 15.7%,,
,1.9 ± 0.46 µM,4.42 ± 1.13 µM,"Cc1ccccc1COc1ccc(-c2onc(C)c2-c2ccc(Cl)cc2)c(O)c1 [Compound A, reference compound]",66.7 ± 11.5%,3 ± 0.7%,1.9 µM,4.4 µM
